Measured values reported in patent US20060046975A1, “Method for preparing a medical solution for the manufacture of a medicament for peritoneal dialysis” (priority 2002, published 2006).

Columns and labels:
[1] = test system: human peritoneal mesothelial cells and fibroblasts; settings: Breborowicz et al 1998; cited from earlier work
peritoneum = settings: cited from earlier work
[2] = pH change of the solution during sterilisation; assay type: physicochemical
Description: NAG and other amino sugars have a major difference from glucose and glucose-like compounds by having one amino group and possibly an acetyl group coupled to the glucose ring.

cultured cells = assay: in vitro inhibition of cell growth (ICG) in cultured cells by heat sterilised NAG solutions; assay type: cell-based
Description: Experiments in which measurements of the percentage of inhibition of cell growth (ICG) and fluorescence have been made at varying NAG concentrations, and also at varying pH values, during terminal heat sterilisation are illustrated in FIGS. 1-4. The results of the experiments imply that the concentration of the amino sugar/sugars should be optimised.
(§1) A simple, reliable and known way to study the cytotoxicity of substances or of medical fluids is to test proliferation as in vitro inhibition of cell growth (ICG) in cultured cells. Another method to get a rough estimation of the amount of amino sugars that is rearranged is measurement of the fluorescence.
More precisely, from the graph in FIG. 1 it can be seen that the inhibition of cell growth reaches a maximum with sterilisation of a solution containing about 5% NAG. With increasing NAG concentration the inhibition of cell growth decreases.
The bar diagram in FIG. 2 illustrates the effect of increased NAG concentration at different pH values during terminal heat sterilisation.

[3] = analysis of degradation products (3-DG, 3,4-DGE) in heat sterilised solutions by HPLC; assay type: physicochemical; settings: heat sterilised NAG solutions
Description: This cytotoxicity depends on the formation of toxic degradation products from said amino sugars. […] This fact has not been known previously and forms the basis for the present invention. It should be noted that the decomposition pattern for an amino sugar solution during heat sterilisation follows specific Maillard reactions giving several different toxic decomposition products. The decomposition pattern differs for e.g. a glucose solution during heat sterilisation, wherein different decomposition products are formed. This difference is illustrated in FIGS. 5a-5d, showing chromatograms when analysing 3-DG and 3,4-DGE in a NAG solution and in a glucose solution, respectively. The difference in degradation is likely due to that the NAG molecules contains groups that allows the Maillard reaction to take place and therefore create a large number of degradation products not seen in a glucose solution.

[4] = fluorescence of terminally heat sterilised NAG containing solution; assay type: physicochemical; settings: FIG. 3; excitation at 350 nm, emission of 430 nm
Description: as §1
The lowest fluorescence is seen at around pH 4.

Row | Compound | production of hyaluronan and sulphated glycosaminoglycans [1] | effect on the peritoneum of dialysis solution supplemented with N-acetylglucosamine (peritoneum; Wu et al 1998, chronic peritoneal dialysis) | change of pH of the solution during sterilisation [2] | inhibition of cell growth with increasing NAG concentration (cultured cells; FIG. 1, above the maximum at about 5% NAG) | NAG concentration during sterilisation at which inhibition of cell growth reaches a maximum (cultured cells; FIG. 1, terminal heat sterilisation) | inhibition of cell growth, effect of NAG concentration during sterilisation (cultured cells; FIG. 2, 30% versus 1.5% NAG, for all three pH values) | percentage inhibition of cell growth, effect of pH during sterilisation (cultured cells; FIG. 2, pH 3.0 versus pH 5.5 and 7.2) | optimal pH of sterilisation from an in vitro toxicological point of view (cultured cells; NAG containing solution, higher or lower pH gives higher percentage of inhibited growth) | cytotoxicity after heat sterilisation (cultured cells; amino sugars, e.g. NAG, in conventional medical solutions) | known glucose degradation products found [3] | pH at which fluorescence is lowest [4] | function of the peritoneum as a dialysis membrane (peritoneum; Wieczorowska et al 1995, fluid supplemented with exogenous hyaluronan)
1 | CC(=O)N[C@H]1C(O)O[C@H](CO)[C@@H](O)[C@@H]1O (stereo partly drawn) [NAG, N-acetylglucosamine] | rapidly stimulates | causes accumulation of glucosaminoglycans in the peritoneal interstitium | increases during sterilisation | decreases | about 5% | lower after a terminal heat sterilisation at a NAG concentration of 30% than at a NAG concentration of 1.5% | lower after terminal heat sterilisation at a pH of 3.0 than at a pH of 5.5 and 7.2 | 2.5-3.5 | increased cytotoxicity | none of the known glucose degradation products has been found | ~4 | 
2 | hyaluronan [reference compound] |  |  |  |  |  |  |  |  |  |  |  | better preserved
